{
  "source": "patent US20020197244A1",
  "about": "“Compositions and methods for regulating phagocytosis and ICAM-1 expression” (priority 1998, published 2002)",
  "type_in_all_cases": "cell-based",
  "key": {"[1]": {"system": "melanocyte cultures plated under epidermal equivalents (EpiDerm)", "assay": "Pigmentation in equivalent-monolayer co-culture (no K-M contact)", "conditions": "no keratinocyte-melanocyte contact", "protocol": "(§1) Since PAR-2 is expressed in keratinocytes, but not in melanocytes, the possible requirement of keratinocyte-melanocyte contact was tested for the effect of Compound I and SLIGRL on melanosome phagocytosis by the keratinocytes. Primary melanocyte cultures (commercially available from Clonetics, San Diego) were plated under epidermal equivalents (EpiDerm, of MatTek, Ashland, Mass.) to create an equivalent-monolayer co-culture with no contact between keratinocytes and melanocytes. These co-cultures were compared to MelanoDerm equivalents (of MatTek), where melanocytes are present in the basal layer of the equivalent. Cultures were treated with Compound I, with the […], and with the PAR-2 agonist SLIGRL. As set forth in Table 3, keratinocytes are indicated by “K”, melanocytes are indicated by “M”, and lack of keratinocyte-melanocyte contact is indicated as “no K-M cont”. […] The same result was also observed with monolayer keratinocyte/melanocyte co-cultures having keratinocyte/melanocyte contact."}, "[2]": {"system": "ICAM-1", "assay": "ICAM-1 immuno-precipitation and Western blotting in keratinocytes", "conditions": "treated keratinocytes; FIG. 6B", "protocol": "Immuno-precipitation and Western blotting experiments were performed, according to known methods, to assess the level of ICAM-1 protein in treated keratinocytes."}, "[3]": {"system": "monolayer keratinocyte/melanocyte co-cultures", "assay": "Pigmentation in monolayer keratinocyte/melanocyte co-cultures (K-M contact)", "conditions": "keratinocyte-melanocyte contact", "protocol": "as §1"}, "[4]": {"system": "Human keratinocytes", "assay": "Timing of effect on keratinocyte microsphere phagocytosis", "parameters": "key: +: Plus signs indicate an effect on phagocytosis; −: minus signs indicate no effect on phagocytosis; −/+: plus/minus signs indicate a marginal effect on phagocytosis", "conditions": "effect = decrease for Compound I, increase for SLIGRL", "protocol": "In this example, human primary keratinocytes or the human keratinocyte cell line HaCaT were used as in vitro model systems to study the effect of PAR-2 regulators on keratinocyte phagocytosis. The human primary keratinocytes used are commercially available from Clonetics (San Diego, Calif.). Cells were plated on chamber slides, at 2 chambers/slide and 60,000 cells/chamber. Cells were treated once daily, for two or three days, with Compound I (1μM), SLIGRL (10μM), or vehicle (Phosphate-buffered saline, (“PBS”) from Gibco-BRL (Gaithersburg, Md.). After two or three days of exposure to the test compounds, cells were exposed to Nile-red or FITC fluorescent microspheres, 1 μm in diameter, 50 microspheres/cell, for two hours at 37° C. Microspheres were from Molecular Probes (Eugene, Oreg.), and were processed according to manufacturer's instructions. Following that treatment, cells were incubated with 15% Fetal Bovine Serum (“FBS”, from Gibco-BRL), for 15 minutes at 37° C. and rinsed with PBS. At that time, chambers were separated from the slides, and the slides were covered with glycerol and coverslips. Fluorescent microscopy was performed using a Zeiss Axiovert 35 or a Nikon Optiphot-2 microscope.\nHuman keratinocytes were treated with Compound I or SLIGRL for periods of time ranging from one hour to two days. At the end of the treatment period, the cells were treated with microspheres as described in Example 1. […] Plus signs indicate an effect on phagocytosis, minus signs indicate no effect on phagocytosis, and plus/minus signs indicate a marginal effect on phagocytosis. The effects measured were a decrease for Compound I and an increase for SLIGRL. […] This implies that the PAR-2 signaling results in new protein synthesis, a reduction in protein synthesis when a turnover time is required to eliminate the existing relevant protein(s), or a rearrangement of proteins (as occurs in the reorganization of cytoskeletal components)."}, "[5]": {"system": "human primary keratinocytes", "assay": "Fluorescent microsphere ingestion by human primary keratinocytes", "conditions": "treated two days; Compound I 1μM, SLIGRL 10μM; vs vehicle control; FIG. 1", "protocol": "In order to study the role of the PAR-2 pathway in phagocytosis, several in vitro model systems were used. One system used contained primary human keratinocytes or a human keratinocyte cell line. In this and a number of following examples, cells were treated with test compounds for different amounts of time (from one hour to three days), and samples were then incubated with fluorescent microspheres for two hours. The beads ingested by the cells were photographed using fluorescence microscopy.\nIn this example, human primary keratinocytes or the human keratinocyte cell line HaCaT were used as in vitro model systems to study the effect of PAR-2 regulators on keratinocyte phagocytosis. The human primary keratinocytes used are commercially available from Clonetics (San Diego, Calif.). Cells were plated on chamber slides, at 2 chambers/slide and 60,000 cells/chamber. […]\nMicrospheres were also found around the cell, probably because they are non-specifically attached to extracellular-matrix components secreted by the cell. The quantity of the microspheres ingested was changed with the treatments."}, "[6]": {"system": "Keratinocytes", "assay": "Scanning electron microscopy of keratinocyte podia", "conditions": "treated two days; vs vehicle-treated controls; FIG. 8", "protocol": "PAR-2 Effect on Phagocytosis and Migration Relates to Changes in Cell Shape Both phagocytosis and cell migration involve changes in cell shape. Therefore, the effect of the PAR-2 pathway reagents on cell podia were studied using scanning electron microscopy. Keratinocytes were treated with Compound I (identified as “SH00230”), SLIGRL and a buffer vehicle for two days, and then processed for SEM using standard techniques. […] In other words, the cells' “fingers” are shorter and malformed, so they cannot grasp objects as well as can the control cells. […] In other words, these cells have a greater probability for productive interaction with particles. Comparing these SEM pictures in FIG. 8, it is clear that SLIGRL-treated cells have a greater ability to interact with particles, while Compound I-treated cells are less suited for such a task."}, "[7]": {"system": "Human PMN cells", "assay": "PMN chemotactic migration towards FMLP, Boyden chamber", "conditions": "cells counted at 115 microns; PMN pretreated with 5 or 0.5 mg/ml STI or 1 or 0.1 μM Compound I; buffer without FMLP: 19 at 80 μ", "protocol": "Since ICAM-1 is involved in cell migration, cell migration towards a chemotactic peptide was studied in cells treated with Compound I and STI. Human PMN cells were placed in one side of a Boyden chamber, using standard techniques, and a chemotactic peptide (FMLP) was placed in the other chamber. Cells were allowed to migrate into the second chamber, and the number of migrating cells per field and distance of migration were calculated. The experiment was repeated with PMN cells pretreated with one of the following: 5 or 0.5 mg/ml STI, 1 or 0.1 μM Compound I, a buffer vehicle, and with and without chemotactic peptide. The number of cells per field that migrated the same distance as the untreated control was measured. Without the peptide and with no treatment, an average of 19 cells/field were migrating a distance of 80 microns. […] In other words, no cells (or less than 5/field) were identified at 115 microns. […] The ability to inhibit PMN migration is an important constituent of anti-inflammatory compounds."}, "[8]": {"system": "MelanoDerm equivalents", "assay": "Pigmentation in melanocyte-containing epidermal equivalents", "conditions": "keratinocyte-melanocyte contact", "protocol": "as §1"}},
  "note": "Entries after “also recorded” stand apart in the source; their conditions may differ.",
  "data": [
    {"molecule": "CN[C@H](Cc1ccccc1)C(=O)N1CCCC1C(=O)N[C@@H](CCCNC(=N)N)C(=O)c1nc2ccccc2s1", "note": "(stereo partly drawn) [Compound I, (S)-N-Methyl-D-phenylalanyl-N-[4-[(aminoiminomethyl)amino]-1-(2-benzothiazolylcarbonyl)butyl]-L-prolinamide]", "values": [
      {"measurement": "level of pigmentation, Equivalent Monolayer Co-culture (no K-M cont.)", "setting": "[1]", "value": "no effect"},
      {"measurement": "level of ICAM-1 protein expression", "setting": "[2]", "value": "decreased the level of ICAM-1 expression"},
      {"measurement": "level of pigmentation, Mono-Layer Co-Cultures (K-M cont.)", "setting": "[3]", "value": "lightening"},
      {"measurement": "effect on phagocytosis", "setting": "[4]; 1 hour of treatment", "value": "−"},
      {"measurement": "effect on phagocytosis", "setting": "[4]; 2 hours of treatment", "value": "−"},
      {"measurement": "effect on phagocytosis", "setting": "[4]; 4 hours of treatment", "value": "−"},
      {"measurement": "effect on phagocytosis", "setting": "[4]; 6 hours of treatment", "value": "−"},
      {"measurement": "effect on phagocytosis", "setting": "[4]; 8 hours of treatment", "value": "−/+"},
      {"measurement": "effect on phagocytosis", "setting": "[4]; 16 hours of treatment", "value": "+"},
      {"measurement": "effect on phagocytosis", "setting": "[4]; 24 hours of treatment", "value": "+"},
      {"measurement": "effect on phagocytosis", "setting": "[4]; 48 hours of treatment", "value": "+"},
      {"measurement": "quantity of ingested microspheres", "setting": "[5]", "value": "dramatic reduction in the quantity of ingested microspheres"},
      {"measurement": "shape of cell podia", "setting": "[6]", "value": "dramatically shorter podia"},
      {"measurement": "Cells/Field", "setting": "[7]", "value": "<5", "unit": "cells/field"},
      {"measurement": "level of pigmentation, Epidermal Equivalents (K-M cont.)", "setting": "[8]", "value": "reduced; also recorded: lightening"}
    ]},
    {"molecule": "SLIGRL [reference compound]", "values": [
      {"measurement": "level of pigmentation, Equivalent Monolayer Co-culture (no K-M cont.)", "setting": "[1]", "value": "no effect"},
      {"measurement": "level of ICAM-1 protein expression", "setting": "[2]", "value": "increased the level of ICAM-1 expression"},
      {"measurement": "level of pigmentation, Mono-Layer Co-Cultures (K-M cont.)", "setting": "[3]", "value": "darkening"},
      {"measurement": "effect on phagocytosis", "setting": "[4]; 1 hour of treatment", "value": "−"},
      {"measurement": "effect on phagocytosis", "setting": "[4]; 2 hours of treatment", "value": "−"},
      {"measurement": "effect on phagocytosis", "setting": "[4]; 4 hours of treatment", "value": "−"},
      {"measurement": "effect on phagocytosis", "setting": "[4]; 6 hours of treatment", "value": "−"},
      {"measurement": "effect on phagocytosis", "setting": "[4]; 8 hours of treatment", "value": "−/+"},
      {"measurement": "effect on phagocytosis", "setting": "[4]; 16 hours of treatment", "value": "+"},
      {"measurement": "effect on phagocytosis", "setting": "[4]; 24 hours of treatment", "value": "+"},
      {"measurement": "effect on phagocytosis", "setting": "[4]; 48 hours of treatment", "value": "+"},
      {"measurement": "quantity of ingested microspheres", "setting": "[5]", "value": "dramatic increase in the number of ingested microspheres"},
      {"measurement": "shape of cell podia", "setting": "[6]", "value": "podia were increased in number, were somewhat longer, and were much thinner"},
      {"measurement": "level of pigmentation, Epidermal Equivalents (K-M cont.)", "setting": "[8]", "value": "induced pigmentation; also recorded: darkening"}
    ]},
    {"molecule": "STI: Soybean trypsin inhibitor, a serine protease inhibitor capable of affecting the PAR-2 pathway (protein, UniProt P01070 25-205, looked up) Trypsin inhibitor A: DFVLDNEGNPLENGGTYYILSDITAFGGIRAAPTGNERCPLTVVQSRNELDKGIGTIISSPYRIRFIAEGHPLSLKFDSFAVIMLCVGIPTEWSVVEDLPEGPAVKIGENKDAMDGWFRLERVSDDEFNNYKLVFCPQQAEDDKCGDIGISIDHDDGTRRLVVSKNKPLVVQFQKLDKESL", "values": [
      {"measurement": "Cells/Field", "setting": "[7]", "value": "<5", "unit": "cells/field"}
    ]}
  ]
}
